Laboratory results from publication PMC4995043, “A Diverse Family of Host-Defense Peptides (Piscidins) Exhibit Specialized Anti-Bacterial and Anti-Protozoal Activities in Fishes” (PLoS ONE, 2016).
In brackets after ≈: the same amount, converted by molar mass. Where two headings read alike, the source gives them in different places. Where a SMILES comes first, the peptide text is derived from it.

Legend:
[1] = tested on: Aeromonas salmonicida; format: cell-based; conditions: 18 h
Excerpt: (§1) Fish bacterial pathogens, Streptococcus iniae (stock 00–1425; isolated from rainbow trout, Oncorhynchus mykiss), Lactococcus garvieae (stock 00–1422; multiple antibiotic-resistant strain), Vibrio anguillarum (stock 91–3057; ATCC 19264), and Aeromonas salmonicida (stock 91–3053; ATCC® 7965™), and human bacterial pathogens, Enterococcus faecalis (stock 00–1403; ATCC 29212), Staphylococcus aureus (ATCC 29213), Shigella flexneri (stock 00–1402; ATCC 12022), and Escherichia coli (stock 00–1405; ATCC 25922), were cultured from frozen stocks stored in glycerol at -80°C. L. garvieae, A. salmonicida, E. faecalis, S. aureus, and S. flexneri were grown in Mueller Hinton Broth (MHB); the MHB was supplemented with 1% NaCl for L. garvieae. S. iniae, and V. anguillarum were grown in Tryptic Soy Broth (TSB) supplemented with 1.5% NaCl and E. coli was grown in Luria-Bertani Broth (LB). The fish and human pathogens were grown at 25°C and 37°C, respectively, while shaking at 200 rpm for 18 h except for S. iniae, which was grown for 48 h. The cultures were passaged at least three times each when in log phase to ensure that they had acclimated to culture.
(§2) The minimum inhibitory concentrations (MIC) and minimum bactericidal concentrations (MBC) were determined as previously described following standard methods recommended by the […] for MIC90 and MBC determinations of clinical isolates with some modifications. Overnight bacterial cultures were diluted to 80–88% transmittance in their appropriate medium. The cultures were then diluted again to 1:200 and 100 μL was pipetted into each of 3 wells in 11 columns of a 96-well plate (Corning, Inc., Tewksbury, MA), the 12th column loaded with media without bacteria as a sterility control and blank.
(§3) The synthetic piscidin peptides (piscidins 1, 4, and 7 from striped bass; piscidins 1, 5, and 6 from white bass; and piscidin 3 corresponding to both striped bass and white bass) were prepared by diluting the 4 mg/mL stocks to 2 mg/mL in 0.2% bovine serum albumin (BSA) + 0.01% acetic acid. These were then serially diluted to a concentration of 3.9 μg/mL in the same diluent. The piscidin dilutions were added to the first 10 columns of the 96-well plate containing bacteria, […] was loaded with diluent only to act as a positive growth control. The final concentrations tested were 200 μg/mL to 0.39 μg/mL. The plates were incubated with shaking at 200 rpm for 18 h, except for S. iniae, which was incubated for 48 h. Fish pathogens and human pathogens were incubated at 25°C and 37°C, respectively. […] The MIC was taken as the lowest concentration of piscidin that reduced growth when compared to the growth control by more than 50%. To determine the MBC, 20 μL of the media from the wells of the three lowest piscidin concentrations that had no visible growth of bacteria were plated onto the appropriate media plates and incubated as described above. Colonies were counted to determine whether growth was equal to or less than 0.1% of the colony forming units (CFUs) in the original inoculum. The MBC was defined as the lowest concentration of piscidin that killed at least 99.9% of the CFUs in the original inoculum.

[2] = tested on: Enterococcus faecalis; format: cell-based; conditions: 18 h
Excerpt: as §1, §2, §3

[3] = tested on: Lactococcus garvieae; format: cell-based; conditions: 18 h
Excerpt: as §1, §2, §3

[4] = tested on: Staphylococcus aureus; format: cell-based; conditions: 37°C, 18 h; for MIC: S. aureus ATCC 29213, Gram +, human pathogen, MHB, OD630, growth reduced by more than 50%; for MBC: S. aureus ATCC 29213, kills at least 99.9% of CFUs of original inoculum
Excerpt: as §1, §2, §3

[5] = tested on: Streptococcus iniae; format: cell-based; conditions: 48 h; for MIC: S. iniae stock 00–1425, Gram +, fish pathogen, TSB + 1.5% NaCl, OD630, MIC = lowest concentration reducing growth by more than 50%, 3 wells, 200 to 0.39 μg/mL tested
Excerpt: as §1, §2, §3

[6] = tested on: Vibrio anguillarum; format: cell-based; conditions: 18 h
Excerpt: as §1, §2, §3

[7] = tested on: E. coli; format: cell-based, Escherichia coli; conditions: 18 h
Excerpt: as §1, §2, §3

[8] = tested on: Tetrahymena pyriformis; conditions: piscidin 1 not among peptides tested, previously observed results, cited from earlier work; for PC100 (100% parasiticidal concentration): lowest concentration that killed all T. pyriformis
Excerpt: Table 4 Minimum parasiticidal concentrations (PCmin) and 100% parasiticidal concentrations (PC100) of various synthetic hybrid striped bass piscidins against the ciliated protozoan, Tetrahymena pyriformis. | column: PCmin (uM) / SB P1; PC100 (uM) / SB P1; PC100 (uM) / WB P1

[9] = tested on: Shigella flexneri; format: cell-based; conditions: S. flexneri ATCC 12022; kills at least 99.9% of CFUs of original inoculum; 37°C, 18 h
Excerpt: as §1, §2, §3

[10] = E. faecalis ATCC 29212, kills at least 99.9% of CFUs of original inoculum, 37°C
[11] = L. garvieae stock 00–1422, kills at least 99.9% of CFUs of original inoculum, 25°C
[12] = S. iniae stock 00–1425, lowest concentration killing at least 99.9% of CFUs of original inoculum, plated from MIC wells, 25°C

Structure (SMILES)	MBC [1] [µM]	MIC [1] [µM]	MIC [2] [µM]	MBC [2, 10] [µM]	MBC [3, 11] [µM]	MIC [4] [µM]	MBC [4] [µM]	MIC ([5]; 25°C) [µM]	MBC [5, 12] [µM]	MBC [6] [µM]	MBC [7] [µM]	MIC [7] [µM]	PC100 (100% parasiticidal concentration) [8] [µM]	also measured
CC[C@H](C)[C@H](NC(=O)CNC(=O)[C@H](CCCNC(=N)N)NC(=O)[C@H](Cc1ccccc1)NC(=O)[C@@H](NC(=O)[C@H](Cc1c[nH]cn1)NC(=O)[C@H](Cc1c[nH]cn1)NC(=O)[C@H](Cc1ccccc1)NC(=O)[C@@H](N)Cc1ccccc1)[C@@H](C)CC)C(=O)N[C@H](C(=O)N[C@@H](Cc1c[nH]cn1)C(=O)N[C@H](C(=O)NCC(=O)N[C@@H](CCCCN)C(=O)N[C@H](C(=O)N[C@H](C(=O)N[C@@H](Cc1c[nH]cn1)C(=O)N[C@@H](CCCCN)C(=O)N[C@@H](CC(C)C)C(=O)N[C@H](C(=O)N[C@H](C(=O)NCC(=O)O)[C@@H](C)O)C(C)C)[C@@H](C)CC)[C@@H](C)O)C(C)C)C(C)C [WB P1] (H-FFHHIFRGIVHVGKTIHKLVTG-OH; N-terminus and C-terminus assumed)	>78.61	>78.61	1.23 (≈ 3.13 µg/mL)	2.46 (≈ 6.26 µg/mL)	2.46 (≈ 6.26 µg/mL)	2.46 (≈ 6.26 µg/mL)	2.46 (≈ 6.26 µg/mL)	2.46	2.46 (≈ 6.26 µg/mL)	9.83 (≈ 25 µg/mL)	>78.61	4.91 (≈ 12.5 µg/mL)	2.48	–
CC[C@H](C)[C@H](NC(=O)CNC(=O)[C@H](CCCNC(=N)N)NC(=O)[C@H](Cc1ccccc1)NC(=O)[C@@H](NC(=O)[C@H](Cc1c[nH]cn1)NC(=O)[C@H](Cc1c[nH]cn1)NC(=O)[C@H](Cc1ccccc1)NC(=O)[C@@H](N)Cc1ccccc1)[C@@H](C)CC)C(=O)N[C@H](C(=O)N[C@@H](Cc1c[nH]cn1)C(=O)N[C@H](C(=O)NCC(=O)N[C@@H](CCCCN)C(=O)N[C@H](C(=O)N[C@H](C(=O)N[C@@H](Cc1c[nH]cn1)C(=O)N[C@@H](CCCNC(=N)N)C(=O)N[C@@H](CC(C)C)C(=O)N[C@H](C(=O)N[C@H](C(=O)NCC(=O)O)[C@@H](C)O)C(C)C)[C@@H](C)CC)[C@@H](C)O)C(C)C)C(C)C [SB P1] (H-FFHHIFRGIVHVGKTIHRLVTG-OH)	–	–	–	2.43 (≈ 6.25 µg/mL)	1.22 (≈ 3.14 µg/mL)	2.43 (≈ 6.25 µg/mL)	2.43 (≈ 6.25 µg/mL)	1.22	1.22 (≈ 3.14 µg/mL)	–	–	–	5	MIC ([1]; A. salmonicida ATCC 7965, Gram -, fish pathogen, MHB, 25°C, OD630, growth reduced by more than 50%): >77.76 µM; MIC ([2]; E. faecalis ATCC 29212, Gram +, human pathogen, MHB, 37°C, OD630, growth reduced by more than 50%): 1.22 µM (≈ 3.14 µg/mL); MIC ([3]; L. garvieae stock 00–1422 (multiple antibiotic-resistant), Gram +, fish pathogen, MHB + 1% NaCl, 25°C, OD630, growth reduced by more than 50%): 1.22 µM; MBC [9]: 4.86 µM (≈ 12.5 µg/mL); MIC ([6]; V. anguillarum ATCC 19264, Gram -, fish pathogen, TSB + 1.5% NaCl, 25°C, OD630, growth reduced by more than 50%): 2.43 to 4.86 µM; MBC ([6]; V. anguillarum ATCC 19264, kills at least 99.9% of CFUs of original inoculum, 25°C): 9.72 µM (≈ 25 µg/mL); MIC ([7]; E. coli ATCC 25922, Gram -, human pathogen, LB, 37°C, OD630, growth reduced by more than 50%): 4.86 µM (≈ 12.5 µg/mL); PCmin (minimum parasiticidal concentration) ([8]; lowest concentration that killed at least one T. pyriformis): 2.5 µM
CC[C@H](C)[C@H](NC(=O)CNC(=O)[C@H](CCCNC(=N)N)NC(=O)[C@H](Cc1ccccc1)NC(=O)[C@@H](NC(=O)[C@H](Cc1c[nH]cn1)NC(=O)[C@H](Cc1c[nH]cn1)NC(=O)[C@@H](NC(=O)[C@@H](N)Cc1ccccc1)[C@@H](C)CC)[C@@H](C)CC)C(=O)N[C@H](C(=O)N[C@@H](Cc1c[nH]cn1)C(=O)N[C@@H](C)C(=O)NCC(=O)N[C@@H](CCCNC(=N)N)C(=O)N[C@@H](CO)C(=O)N[C@H](C(=O)NCC(=O)N[C@@H](CCCNC(=N)N)C(=O)N[C@@H](Cc1ccccc1)C(=O)N[C@@H](CC(C)C)C(=O)N[C@H](C(=O)NCC(=O)O)[C@@H](C)O)[C@@H](C)CC)C(C)C [SB/WB P3] (H-FIHHIFRGIVHAGRSIGRFLTG-OH; N-terminus and C-terminus assumed)	>80.26	>80.26	1.26 (≈ 3.14 µg/mL)	–	–	–	–	–	–	20.06 (≈ 50 µg/mL)	80.26 (≈ 200 µg/mL)	80.26 (≈ 200 µg/mL)	–	MBC [2]: 10.03 µM (≈ 25 µg/mL); MBC [3]: 5.02 µM (≈ 12.5 µg/mL); MBC [5]: 2.51 µM (≈ 6.25 µg/mL)
